Values quoted from earlier work as cited in patent US8383579B2, “Method for customized dispensing of variable dose drug combination products for individualizing of therapies” (Glaxosmithkline, LLC, priority 2004, dated 2013).

Tests used:
[1] = Lanoxin + coreg UID
[2] = Coreg + cimetidine

## C[C@H]1O[C@@H](O[C@H]2[C@@H](O)C[C@H](O[C@H]3[C@@H](O)C[C@H](O[C@H]4CC[C@@]5(C)[C@H](CC[C@@H]6[C@@H]5C[C@@H](O)[C@]5(C)[C@@H](C7=CC(=O)OC7)CC[C@]65O)C4)O[C@@H]3C)O[C@@H]2C)C[C@H](O)[C@@H]1O [Lanoxin, digoxin]
[1]
  peak/trough conc: 14-16%

## COc1ccccc1OCCNCC(O)COc1cccc2[nH]c3ccccc3c12 (stereo not drawn) [Coreg]
[2]
  AUC steady state: 30%
  Cmax: no change
